In brackets after ≈: the same amount, converted by molar mass. Where two headings read alike, the source gives them in different places.
Columns and labels:
Assay in all cases: MIC by micro-dilution method
Format in all cases: cell-based
S. pyogenes 1323 = settings: Streptococcus pyogenes
Description: (§1) Antibacterial activity studies may be carried out using suitable assays as are known in the art. Susceptibility tests can be used to quantitatively measure the in vitro activity of an antimicrobial agent against a given bacterial isolate. Compounds are tested for in vitro antibacterial activity by a micro-dilution method. Minimal Inhibitory Concentration (MIC) is determined in 96 well microtiter plates utilizing the appropriate Mueller Hinton Broth medium (CAMHB) for the observed bacterial isolates. Antimicrobial agents are serially diluted (2-fold) in DMSO to produce a concentration range from about 64 μg/ml to about 0.03 μg/ml. The diluted compounds (2 μl/well) are then transferred into sterile, uninoculated CAMHB (0.2 mL) by use of a 96 fixed tip-pipeting station. The inoculum for each bacterial strain is standardized to 5×10^5 CFU/mL by optical comparison to a 0.5 McFarland turbidity standard. The plates are inoculated with 10 μI/well of adjusted bacterial inoculum. The 96 well plates are covered and incubated at 35+/−2° C. for 24 hours in ambient air environment. Following incubation, plate wells are visually examined by Optical Density measurement for the presence of growth (turbidity). The lowest concentration of an antimicrobial agent at which no visible growth occurs is defined as the MIC.
(§2) All in vitro testing follows the guidelines described in the Approved Standards M7-A4 protocol, published by the National Committee for Clinical Laboratory Standards (NCCLS).
(§3) The values in the table are minimum inhibition concentration (MIC) and are expressed as ug/mL. Assays for MIC are described above.

S. pneumoniae 700906 = settings: Streptococcus pneumoniae
Description: as §1, §2, §3

S. aureus 27660 = settings: Staphylococcus aureus
Description: as §1, §2, §3

S. pyogenes 2912 = settings: Streptococcus pyogenes
Description: as §1, §2, §3

H. influenzae 33929 = settings: Haemophilus influenzae
Description: as §1, §2, §3

S. aureus 29213 = settings: Staphylococcus aureus
Description: as §1, §2, §3

S. aureus 33591 = settings: Staphylococcus aureus
Description: as §1, §2, §3

S. pneumoniae 7701 = settings: Streptococcus pneumoniae
Description: as §1, §2, §3

[1] = Table V, compounds of this invention, read-out: minimum inhibition concentration S. pyogenes 1323
[2] = Table V, compounds of this invention, read-out: minimum inhibition concentration S. pneumoniae 700906
[3] = Table V, compounds of this invention, read-out: minimum inhibition concentration S. aureus 27660
[4] = Table V, compounds of this invention, read-out: minimum inhibition concentration S. pyogenes 2912
[5] = Table V, compounds of this invention, read-out: minimum inhibition concentration H. influenzae 33929
[6] = Table V, compounds of this invention, read-out: minimum inhibition concentration S. aureus 29213
[7] = Table V, compounds of this invention, read-out: minimum inhibition concentration S. aureus 33591
[8] = Table V, compounds of this invention, read-out: minimum inhibition concentration S. pneumoniae 7701
[9] = Table IV, species from U.S. Pat. No. 6,878,691 and US 2004/0053861, read-out: minimum inhibition concentration (MIC) S. pyogenes 1323
[10] = Table IV, species from U.S. Pat. No. 6,878,691 and US 2004/0053861, read-out: minimum inhibition concentration (MIC) S. pneumoniae 700906
[11] = Table IV, species from U.S. Pat. No. 6,878,691 and US 2004/0053861, read-out: minimum inhibition concentration (MIC) S. aureus 27660
[12] = Table IV, species from U.S. Pat. No. 6,878,691 and US 2004/0053861, read-out: minimum inhibition concentration (MIC) S. pyogenes 2912
[13] = Table IV, species from U.S. Pat. No. 6,878,691 and US 2004/0053861, read-out: minimum inhibition concentration (MIC) H. influenzae 33929
[14] = Table IV, species from U.S. Pat. No. 6,878,691 and US 2004/0053861, read-out: minimum inhibition concentration (MIC) S. aureus 29213
[15] = Table IV, species from U.S. Pat. No. 6,878,691 and US 2004/0053861, read-out: minimum inhibition concentration (MIC) S. aureus 33591
[16] = Table IV, species from U.S. Pat. No. 6,878,691 and US 2004/0053861, read-out: minimum inhibition concentration (MIC) S. pneumoniae 7701

| SMILES | MIC (S. pyogenes 1323; [1]) [mg/L] | MIC (S. pneumoniae 700906; [2]) [mg/L] | MIC (S. aureus 27660; [3]) [mg/L] | MIC (S. pyogenes 2912; [4]) [mg/L] | MIC (H. influenzae 33929; [5]) [mg/L] | MIC (S. aureus 29213; [6]) [mg/L] | MIC (S. aureus 33591; [7]) [mg/L] | MIC (S. pneumoniae 7701; [8]) [mg/L] | MIC (S. pyogenes 1323; [9]) [mg/L] | MIC (S. pneumoniae 700906; [10]) [mg/L] | MIC (S. aureus 27660; [11]) [mg/L] | MIC (S. pyogenes 2912; [12]) [mg/L] | MIC (H. influenzae 33929; [13]) [mg/L] | MIC (S. aureus 29213; [14]) [mg/L] | MIC (S. aureus 33591; [15]) [mg/L] | MIC (S. pneumoniae 7701; [16]) [mg/L] |
| --- | --- | --- | --- | --- | --- | --- | --- | --- | --- | --- | --- | --- | --- | --- | --- | --- |
| CC[C@H]1OC(=O)[C@@](C)(F)C(=O)[C@H](C)[C@@H](O[C@@H]2O[C@H](C)C[C@H](N(C)C)[C@H]2O)[C@@]2(C)C[C@@H](C)/C(=N\C(C)=O)[C@H](C)[C@@H](OC/C(=N\OCc3ccc4onc(N)c4c3)CO2)[C@]1(C)O [Compound B2] | 0.5 (≈ 0.59 µM) | 0.5 (≈ 0.59 µM) | ≤ 0.06 | 2 (≈ 2.36 µM) | 2 (≈ 2.36 µM) | 0.125 (≈ 0.147 µM) | > 64 | 0.125 (≈ 0.147 µM) |  |  |  |  |  |  |  |  |
| CC[C@H]1OC(=O)[C@H](C)[C@@H](OC(=O)Cc2cccnc2)[C@H](C)[C@@H](O[C@@H]2O[C@H](C)C[C@H](N(C)C)[C@H]2O)[C@@]2(C)C[C@@H](C)/C(=N\C(C)=O)[C@H](C)[C@@H](OC/C(=C\C=C\c3ccccc3)CO2)[C@]1(C)O [Compound A6] |  |  |  |  |  |  |  |  | 2 (≈ 2.25 µM) | 8 (≈ 8.99 µM) | 1 (≈ 1.12 µM) | 8 (≈ 8.99 µM) | > 64 | 1 (≈ 1.12 µM) | 16 (≈ 18 µM) | 1 (≈ 1.12 µM) |
| CC[C@H]1OC(=O)[C@H](C)C(=O)[C@H](C)[C@@H](O[C@@H]2O[C@H](C)C[C@H](N(C)C)[C@H]2O)[C@@]2(C)C[C@@H](C)/C(=N\C(C)=O)[C@H](C)[C@@H](OC/C(=N\OCc3cn4ccncc4n3)CO2)[C@]1(C)O [Compound A3] |  |  |  |  |  |  |  |  | 16 (≈ 19.6 µM) | 0.13 (≈ 0.16 µM) | 0.25 (≈ 0.307 µM) | 32 (≈ 39.3 µM) | 8 (≈ 9.82 µM) | 0.25 (≈ 0.307 µM) | > 64 | 2 (≈ 2.45 µM) |
| CC[C@H]1OC(=O)[C@H](C)C(=O)[C@H](C)[C@@H](O[C@@H]2O[C@H](C)C[C@H](N(C)C)[C@H]2O)[C@@]2(C)C[C@@H](C)/C(=N\C(C)=O)[C@H](C)[C@@H](OC/C(=N\OCc3ccc4oc(N)nc4c3)CO2)[C@]1(C)O [Compound B4] | 0.5 (≈ 0.602 µM) | 0.125 (≈ 0.151 µM) | 0.125 (≈ 0.151 µM) | 1 (≈ 1.2 µM) | 4 (≈ 4.82 µM) | 0.125 (≈ 0.151 µM) | 32 (≈ 38.6 µM) | 0.125 (≈ 0.151 µM) |  |  |  |  |  |  |  |  |
| CC[C@H]1OC(=O)[C@H](C)C(=O)[C@H](C)[C@@H](O[C@@H]2O[C@H](C)C[C@H](N(C)C)[C@H]2O)[C@@]2(C)C[C@@H](C)C(=O)[C@H](C)[C@@H](OC/C(=N\OCc3ccc4nc(N)sc4c3)CO2)[C@]1(C)O [Compound B1] | 0.25 (≈ 0.311 µM) | 1 (≈ 1.24 µM) | ≤ 0.06 | 4 (≈ 4.97 µM) | 2 (≈ 2.48 µM) | ≤ 0.06 | > 64 | ≤ 0.06 |  |  |  |  |  |  |  |  |
| CC[C@H]1OC(=O)[C@H](C)[C@@H](O)[C@H](C)[C@@H](O[C@@H]2O[C@H](C)C[C@H](N(C)C)[C@H]2O)[C@@]2(C)C[C@@H](C)C(=N)[C@H](C)[C@@H](OC/C(=N\OCc3ccccc3)CO2)[C@]1(C)O [Compound A5] |  |  |  |  |  |  |  |  | 64 (≈ 87.2 µM) |  |  | > 64 | > 64 |  | > 64 | 2 (≈ 2.73 µM) |
| CC[C@H]1OC(=O)[C@H](C)[C@@H](OC2C[C@@](C)(OC)[C@@H](OC(C)=O)[C@H](C)O2)[C@H](C)[C@@H](O[C@@H]2O[C@H](C)C[C@H](N(C)C)[C@H]2O)[C@@]2(C)C[C@@H](C)C(=O)[C@H](C)[C@@H](OCC(=Cc3cnc4ccccc4c3)CO2)[C@]1(C)O (stereo partly shown) [Compound A4] |  |  |  |  |  |  |  |  | 64 (≈ 67 µM) |  |  | 64 (≈ 67 µM) | > 64 |  |  | 8 (≈ 8.38 µM) |
| CC[C@H]1OC(=O)[C@H](C)C(=O)[C@H](C)[C@@H](O[C@@H]2O[C@H](C)C[C@H](N(C)C)[C@H]2O)[C@@]2(C)C[C@@H](C)/C(=N\C(C)=O)[C@H](C)[C@@H](OC/C(=N\OCc3nccc4ccccc34)CO2)[C@]1(C)O [Compound A1] |  |  |  |  |  |  |  |  | 0.5 (≈ 0.606 µM) | 0.25 (≈ 0.303 µM) | 0.13 (≈ 0.158 µM) | 8 (≈ 9.7 µM) | 8 (≈ 9.7 µM) | 0.25 (≈ 0.303 µM) | > 64 | 0.5 (≈ 0.606 µM) |
| CC[C@H]1OC(=O)[C@H](C)C(=O)[C@H](C)[C@@H](O[C@@H]2O[C@H](C)C[C@H](N(C)C)[C@H]2O)[C@@]2(C)C[C@@H](C)/C(=N\C(C)=O)[C@H](C)[C@@H](OC/C(=N\OCc3ccc4nccnc4c3)CO2)[C@]1(C)O [Compound A2] |  |  |  |  |  |  |  |  | 1 (≈ 1.21 µM) | 0.25 (≈ 0.303 µM) | 0.25 (≈ 0.303 µM) | 16 (≈ 19.4 µM) | 16 (≈ 19.4 µM) | 0.5 (≈ 0.605 µM) | > 64 | 0.5 (≈ 0.605 µM) |
| CC[C@H]1OC(=O)[C@H](C)C(=O)[C@H](C)[C@@H](O[C@@H]2O[C@H](C)C[C@H](N(C)C)[C@H]2O)[C@@]2(C)C[C@@H](C)C(=O)[C@H](C)[C@@H](OC/C(=N\OCc3ccc4oc(N)nc4c3)CO2)[C@]1(C)O [Compound B3] | 0.5 (≈ 0.634 µM) | 0.25 (≈ 0.317 µM) | ≤ 0.06 | 4 (≈ 5.07 µM) | 2 (≈ 2.54 µM) | ≤ 0.06 | 32 (≈ 40.6 µM) | 0.125 (≈ 0.158 µM) |  |  |  |  |  |  |  |  |

Source: US20060252710A1, “6-11 Bridged oxime erythromycin derivatives” (priority 2005, published 2006)
